From patent US20090088417A1, “VANILLOID RECEPTOR ANTAGONIST FOR PREVENTION AND TREATMENT OF DRUG DEPENDENCE AND ADDICTION” (priority 2006, published 2009)
“Also recorded” adds a separate entry of the source.

Columns and labels:
[1] = system: male ICR mouse; assay: Conditioned place preference (CPP) test, development of psychological dependence on cocaine; type: in vivo; conditions: measured on ninth day
Experimental: In the present invention, a conditioned place preference (CPP) test is used to monitor the degree of alleviation in drug dependence and addiction. The CPP system used in the present invention includes a white box, a black box and a pathway connecting the two boxes with each other. Mice are used as test animals and effects on preference/aversion are analyzed by measuring residence times of the mice in the two boxes.
Development of psychological dependence on cocaine was determined according to the CPP (conditioned place preference) test. […]
Step 1 (Basic Test): On the first day of the test, the Guillotine door between the two boxes was opened, and a male ICR mouse having a body weight of 20˜25 g made available by MJ Ltd. (Seoul) was accommodated in the CPP system so that it could move freely therein for 5 minutes. […] Then, residence times of the mouse in the two boxes were measured for 15 minutes to obtain reference values. […]
Step 3 (Test Step): On the ninth day of the test, the Guillotine door between the two boxes was opened, a pathway was provided in the middle of the boxes, and then a mouse, to which no drug was administered, was allowed to remain in the two boxes for 15 minutes. Then, residence times in the white box and in the black box were measured and compared to the values measured on the second day of the test. […]

[2] = system: mice; assay: Locomotor activity, behavioral sensitization caused by cocaine (displacement from spontaneous movements); type: in vivo, mouse
Experimental: Behavioral sensitization in recurrence of psychological dependence on cocaine was determined according to the locomoter activity. See [Yoo et al. 2003, Neurosci Lett. 433, pp 37-40].
Test animals were divided into four groups as follows: physiological saline was administered to the first test group, cocaine was administered to the second test group, cocaine +2.5 mg/kg of capsazepine (pretreatment) was administered to the third test group, and cocaine +5.0 mg/kg of capsazepine (pretreatment) was administered to the fourth test group.
A locomotor box was used for the test. […] The bottom of the box was covered with a black sheet having substantially the same size as the former.
Step (1)—Basic Test: On the first day, mice were allowed to move freely in the locomotor box for 30 minutes so that they were accommodated.
After the accommodation period, 15 mg/kg of cocaine was administered to the mice via intraperitoneal injection, and then the mice were allowed to remain in the locomotor box. The displacement from spontaneous movements of the mice was measured. […] On the sixth day of the test, the drug was administered again to the mice and the displacement from spontaneous movements was measured. […] Then, displacement from spontaneous movements was measured. […]

[3] = system: mice; assay: CPP test, recurrence of psychological dependence on cocaine after withdrawal; type: in vivo, mouse; conditions: capsazepine 10 mg/kg single-dose pretreatment + cocaine on fifteenth day after 5 days of saline; p<0.05 vs cocaine group
Experimental: The following CPP system was used to perform the test. The CPP system included two boxes, each having a dimension of 15 cm×15 cm×15 cm (width×depth×height). One of the boxes was made of white acryl sheets on three sides thereof, while the other was made of black acryl sheets on three sides thereof. […] Between the two boxes, a gray-colored pathway having a dimension of 3×3×7.5 cm was provided. Also, a Guillotine door capable of interrupting the pathway was provided. […] The test was performed under an illuminance maintained at 20 Lux.
Test animals were divided into four groups. Psychological saline was administered to the first test group (10 mice), and cocaine was administered to the remaining second test group, third test group and fourth test group (30 mice in total). On the ninth day of the test, development of a dependence on cocaine was checked, and then saline was administered alone for the subsequent 5 days to allow the mice to lose the cocaine dependence. […] Residence times in the CPP boxes were measured as described above.

[4] = cited from earlier work

With COc1cc(CNC(=O)CCCC/C=C/C(C)C)ccc1O [capsaicin] the “Effect on development of psychological dependence on cocaine (residence times in CPP boxes)” value ([1]; capsaicin 0.3 mg/kg pretreatment + cocaine, p<0.01 vs saline group) was “increases dependence on cocaine; also recorded: significant increase in psychological dependence on cocaine”.
For Oc1cc2c(cc1O)CN(C(=S)NCCc1ccc(Cl)cc1)CCC2 [capsazepine], the “Inhibition of behavioral sensitization after drug withdrawal (displacement from spontaneous movements, 60 minutes)” value ([2]; capsazepine 5 mg/kg pretreated group, cocaine 15 mg/kg on twelfth day after withdrawal period of five days, p<0.01) was “completely inhibited”, the “Inhibition of behavioral sensitization (displacement from spontaneous movements, 60 minutes)” value ([2]; capsazepine 5 mg/kg pretreatment + cocaine 15 mg/kg i.p. repeated, sixth day of the test, p<0.001) was “significantly inhibits behavioral sensitization caused by cocaine; also recorded: behavioral sensitization was inhibited” and the “Inhibition of development of psychological dependence on cocaine (residence times in CPP boxes)” value ([1]; capsazepine 2.5 and 5 mg/kg i.p., 30 minutes before cocaine 15 mg/kg i.p., p<0.05 vs cocaine group) was “significantly inhibits development of psychological dependence on cocaine”. The “Inhibition of recurrence of psychological dependence on cocaine (residence times in CPP boxes)” value [3] was “significantly inhibits recurrence of dependence on cocaine; also recorded: showed inhibition of such recurrence”, the “Analgesic actions in an animal test” value ([4]; Kwak et al., 1998, Santos and Calixto, 1997) was “effective for providing analgesic actions” and the “Analgesic or anti-inflammatory effect” value ([4]; Perkins and Campbell, 1992) was “does not provide an analgesic or anti-inflammatory effect”.
